Results from patent US20250115558A1, “PYRIDAZINE DERIVATIVES AND RELATED USES” (NodThera Limited, priority 2023, published 2025).
pIC50: −log10 of the molar value. Where a name gives a salt, the structure may show the parent alone.

Tests used:
THP-1 = THP-1 IC50 assay; format: cell-based; conditions: Homo sapiens; THP-1 cells
[1] = tested on: IL-1β release upon NLRP3 activation in peripheral blood mononuclear cells (PBMC); assay: PBMC IC50 Determination Assay; format: cell-based; conditions: Homo sapiens; inhibition of IL-1β release; LPS-primed PBMC stimulated with ATP or nigericin
Method: The compounds of the present disclosure were tested for their inhibitory activity against IL-1β release upon NLRP3 activation in peripheral blood mononuclear cells (PBMC).
Protocol A. PBMC were isolated from buffy coats by density gradient centrifugation on Histopaque-1077 (Sigma, cat no. 10771). Isolated cells were seeded into the wells of a 96-well plate and incubated for 3 h with lipopolysaccharide (LPS). Following medium exchange, the compounds of the present disclosure were added (a single compound per well) and the cells were incubated for 30 min. Next, the cells were stimulated either with ATP (5 mM) or nigericin (10 μM) for 1 h and the cell culture media from the wells were collected for further analysis.
The release of IL-1β into the media was determined by a quantitative detection of IL-1β in the media using an IL-1β enzyme-linked immunosorbent assay (ELISA) Ready-SET-Go!, eBioscience cat. No. 88-7261-88. Briefly, in a first step, high affinity binding plates (Corning, Costar 9018 or NUNC Maxisorp Cat No. 44-2404) were coated overnight at 4° C. with specific capture antibody included in the kit (anti-human IL-1β ref. 14-7018-68). Subsequently, plates were blocked with blocking buffer for 1 h at room temperature (rt) and after washing with a buffer (PBS with 0.05% Tween-20) incubated with protein standard and culture media. After 2 h of incubation at rt, plates were washed and incubated with biotinylated detection antibody included in the kit (anti-human IL-1β Biotin ref. 33-7110-68) for 1 h at rt. Plates were washed and incubated with HRP-streptavidin for 30 min at rt and washed again. The signal was developed after addition of 3,3′,5,5′-tetramethylbenzidine-peroxidase (TMB) until colour appeared and the reaction was stopped by 2 M H2SO4. A microplate spectrophotometer (BioTek) was used to detect signals with 450 nm. The detection range of IL-1β ELISA was […].
Protocol B. PBMC were isolated from buffy coats by density gradient centrifugation on Histopaque-1077 (Sigma, cat no. 10771). Isolated cells were seeded into the wells (280,000 cells/well) of a 96-well plate and incubated for 3 h with lipopolysaccharide (LPS, 1 μg/mL diluted 1000× from a 1 mg/mL stock solution). The compounds of the present disclosure were added (a single compound per well) and the cells were incubated for 30 min. Next, the cells were stimulated with ATP (5 mM final concentration diluted 20× from a 100 mM stock solution) for 1 h and the cell culture media from the wells were collected for further analysis.
The release of IL-1β into the media was determined by quantitative detection of IL-1β in the media using HTRF®, CisBio cat. No. 62HIL1BPEH. Briefly, cell culture supernatant were dispensed directly into the assay plate containing antibodies labelled with the HTRF® donor and acceptor. A microplate spectrophotometer (BMG) was used to detect signals at 655 nm and 620 nm. The detection range of IL-1β HTRF® was 39-6500 μg/mL.

pIC50 (THP-1)	SMILES	pIC50 [1]
6.00 to 6.30	Cc1cc(C(F)(F)F)cc(O)c1-c1ccc(CNC2CCOCC2)nn1 [Compound 1, 3-Methyl-2-(6-(((tetrahydro-2H-pyran-4-yl)amino)methyl)pyridazin-3-yl)-5-(trifluoromethyl)phenol]	6.00 to 6.30
6.00 to 6.30	Cc1cc(C(F)(F)F)cc(O)c1-c1ccc(CNC2CC3(COC3)C2)nn1 [Compound 2, 2-(6-(((2-Oxaspiro[3.3]heptan-6-yl)amino)methyl)pyridazin-3-yl)-3-methyl-5-(trifluoromethyl)phenol]	6.00 to 6.30
6.00 to 6.30	Cc1cc(C(F)(F)F)cc(O)c1-c1ccc(CNC2CC3(C2)CS(=O)(=O)C3)nn1 [Compound 3, 6-(((6-(2-Hydroxy-6-methyl-4-(trifluoromethyl)phenyl)pyridazin-3-yl)methyl)amino)-2-thiaspiro[3.3]heptane 2,2-dioxide]	6.00 to 6.30
5.52 to 6.00	Cc1cc(C(F)(F)F)cc(O)c1-c1ccc(CNC2CC3CCOC32)nn1 (stereo not drawn) [Compound 4, 2-(6-(((2-Oxabicyclo[3.2.0]heptan-7-yl)amino)methyl)pyridazin-3-yl)-3-methyl-5-(trifluoromethyl)phenol]	5.52 to 6.00
6.00 to 6.30	Cc1cc(C(F)(F)F)cc(O)c1-c1ccc(CNC2(C)CCOCC2)nn1 [Compound 5, 3-Methyl-2-(6-(((4-methyltetrahydro-2H-pyran-4-yl)amino)methyl)pyridazin-3-yl)-5-(trifluoromethyl)phenol]	6.00 to 6.30
6.00 to 6.30	Cc1cc(C(F)(F)F)cc(O)c1-c1ccc(CNC2(C)CCOC2)nn1 (stereo not drawn) [Compound 6, 3-Methyl-2-(6-(((3-methyltetrahydrofuran-3-yl)amino)methyl)pyridazin-3-yl)-5-(trifluoromethyl)phenol hydrochloride]	6.00 to 6.30
5.00 to 5.52	Cc1cc(C(F)(F)F)cc(O)c1-c1ccc(CNC(=O)C2CCOCC2)nn1 [Compound 7, N-((6-(2-Hydroxy-6-methyl-4-(trifluoromethyl)phenyl)pyridazin-3-yl)methyl)tetrahydro-2H-pyran-4-carboxamide]	5.00 to 5.52
5.00 to 5.52	COCC(=O)NCc1ccc(-c2c(C)cc(C(F)(F)F)cc2O)nn1 [Compound 8, N-((6-(2-Hydroxy-6-methyl-4-(trifluoromethyl)phenyl)pyridazin-3-yl)methyl)-2-methoxyacetamide]	5.52 to 6.00
≤ 5.00	Cc1c(C(F)(F)F)ccc(-c2ccc(CNC3CCOCC3)nn2)c1O [Compound 9, 2-Methyl-6-(6-(((tetrahydro-2H-pyran-4-yl)amino)methyl)pyridazin-3-yl)-3-(trifluoromethyl)phenol]	≤ 5.00
5.52 to 6.00	Cc1cc(CNC2CCOCC2)nnc1-c1c(C)cc(C(F)(F)F)cc1O [Compound 10, 3-Methyl-2-(4-methyl-6-(((tetrahydro-2H-pyran-4-yl)amino)methyl)pyridazin-3-yl)-5-(trifluoromethyl)phenol]	5.52 to 6.00
5.52 to 6.00	Cc1cc(CNC2CCOCC2)nnc1-c1ccc(C(F)(F)F)cc1O [Compound 11, 2-(4-Methyl-6-(((tetrahydro-2H-pyran-4-yl)amino)methyl)pyridazin-3-yl)-5-(trifluoromethyl)phenol]	5.52 to 6.00
> 6.30	Cc1cc(Cl)cc(O)c1-c1ccc(CNC2CCOCC2)nn1 [Compound 12, 5-Chloro-3-methyl-2-(6-(((tetrahydro-2H-pyran-4-yl)amino)methyl)pyridazin-3-yl)phenol]	> 6.30
5.00 to 5.52	Oc1cc(C(F)(F)F)ccc1-c1ccc(CNC2CCOCC2)nn1 [Compound 13, 2-(6-(((Tetrahydro-2H-pyran-4-yl)amino)methyl)pyridazin-3-yl)-5-(trifluoromethyl)phenol]	5.00 to 5.52
5.52 to 6.00	Oc1cc(C(F)(F)F)cc(Cl)c1-c1ccc(CNC2CCOCC2)nn1 [Compound 14, 3-Chloro-2-(6-(((tetrahydro-2H-pyran-4-yl)amino)methyl)pyridazin-3-yl)-5-(trifluoromethyl)phenol]	5.52 to 6.00
≤ 5.00	Cc1cc(-c2ccc(CNC3CCOCC3)nn2)c(O)cc1C(F)(F)F [Compound 15, 4-Methyl-2-(6-(((tetrahydro-2H-pyran-4-yl)amino)methyl)pyridazin-3-yl)-5-(trifluoromethyl)phenol]	≤ 5.00
5.52 to 6.00	Oc1cc(Cl)ccc1-c1ccc(CNC2CCOCC2)nn1 [Compound 16, 5-Chloro-2-(6-(((tetrahydro-2H-pyran-4-yl)amino)methyl)pyridazin-3-yl)phenol]	≤ 5.00
5.52 to 6.00	Cc1cc(C(F)(F)F)cc(O)c1-c1ccc(COC2CCOCC2)nn1 [Compound 17, 3-methyl-2-(6-(((tetrahydro-2H-pyran-4-yl)oxy)methyl)pyridazin-3-yl)-5-(trifluoromethyl)phenol]	5.00 to 5.52

pIC50 (THP-1)	SMILES	pIC50 [1]
5.52 to 6.00	Cc1cc(C(F)(F)F)cc(O)c1-c1ccc(COC2CCCNC2)nn1 (stereo not drawn) [Compound 18, 3-Methyl-2-(6-((piperidin-3-yloxy)methyl)pyridazin-3-yl)-5-(trifluoromethyl)phenol]	6.00 to 6.30
5.52 to 6.00	Cc1cc(C(F)(F)F)cc(O)c1-c1ccc(COC2CCNCC2)nn1 [Compound 19, 3-Methyl-2-(6-((piperidin-4-yloxy)methyl)pyridazin-3-yl)-5-(trifluoromethyl)phenol]	5.52 to 6.00
5.00 to 5.52	Cc1cc(C(F)(F)F)cc(O)c1-c1ccc(CN)nn1 [Compound 20, 2-[6-(aminomethyl)pyridazin-3-yl]-3-methyl-5-(trifluoromethyl)phenol]	5.52 to 6.00
6.00 to 6.30	Cc1cc(C(F)(F)F)cc(O)c1-c1ccc(CNC2COC2)nn1 [Compound 21]	6.00 to 6.30
5.52 to 6.00	Cc1cc(C(F)(F)F)cc(O)c1-c1ccc(CNC2CCCN(C)C2)nn1 (stereo not drawn) [Compound 22]	5.52 to 6.00
5.00 to 5.52	Cc1cc(C(F)(F)F)cc(O)c1-c1ccc(CN2C(=N)N(C)CC2=O)nn1 [Compound 23]	5.00 to 5.52
6.00 to 6.30	CC(=O)N1CCC(NCc2ccc(-c3c(C)cc(C(F)(F)F)cc3O)nn2)C1 (stereo not drawn) [Compound 24]	> 6.30
5.00 to 5.52	Cc1cc(C(F)(F)F)cc(O)c1-c1ccc(Cn2ccc(=N)cc2)nn1 [Compound 25]	5.00 to 5.52
5.52 to 6.00	Cc1cc(C(F)(F)F)cc(O)c1-c1ccc(CNc2cncnc2)nn1 [Compound 26]	6.00 to 6.30
5.52 to 6.00	Cc1cc(C(F)(F)F)cc(O)c1-c1ccc(CNc2ccnn2C)nn1 [Compound 27]	6.00 to 6.30
6.00 to 6.30	Cc1cc(C(F)(F)F)cc(O)c1-c1ccc(CNc2cscn2)nn1 [Compound 28]	6.00 to 6.30
5.00 to 5.52	Cc1cc(OC(F)(F)F)cc(O)c1-c1ccc(CNC2CCOCC2)nn1 [Compound 30, 3-Methyl-2-(6-(((tetrahydro-2H-pyran-4-yl)amino)methyl)pyridazin-3-yl)-5-(trifluoromethoxy)phenol]	5.00 to 5.52
5.52 to 6.00	Cc1cc(NCc2ccc(-c3c(C)cc(C(F)(F)F)cc3O)nn2)no1 [Compound 31, 3-Methyl-2-(6-(((5-methylisoxazol-3-yl)amino)methyl)pyridazin-3-yl)-5-(trifluoromethyl)phenol]	> 6.30
6.00 to 6.30	Cc1cc(C(F)(F)F)cc(O)c1-c1ccc(CN[C@@H]2CCOC2)nn1 [Compound 32, (R)-3-Methyl-2-(6-(((tetrahydrofuran-3-yl)amino)methyl)pyridazin-3-yl)-5-(trifluoromethyl)phenol]	> 6.30
	Cc1cc(C(F)(F)F)cc(O)c1-c1ccc(CNC2CC(F)(F)C2)nn1 [Compound 143]	> 6.30
5.52 to 6.00	Cc1cnc(NCc2ccc(-c3c(C)cc(C(F)(F)F)cc3O)nn2)o1 [Compound 148]	

SMILES	pIC50 (THP-1)	pIC50 [1]
Cc1cc(Br)cc(O)c1-c1ccc(CNC2CCOCC2)nn1 [Compound 29, 5-Bromo-3-methyl-2-(6-(((tetrahydro-2H-pyran-4-yl)amino)methyl)pyridazin-3-yl)phenol]	> 6.30	> 6.30
